Laboratory results from patent US7462735B2, “Amino acid diamides in non α position which are useful as adjuvants for administration of biological active agents” (Laboratorios Farmaceuticos Rovi, S.A., priority 2003, dated 2008).

How the values were obtained:
[1] = Intracolonic absorption of bemiparin in the rat, with or without adjuvant (plasma anti-Xa activity); type: in vivo; conditions: for effect on colonic absorption of bemiparin measured by plasma anti-Xa activity: adjuvant given with bemiparin, result in words; for anti-Xa activity/ml in plasma: 30 mg/kg bemiparin (+ 30 mg/kg adjuvant)
From the text: The properties of the invention products have been investigated in an experimental model described below that consists of measuring the intracolonic absorption in the rat of a low-molecular-weight heparin, bemiparin, with a mean molecular mass of around 3,500 daltons and an anti-Xa activity of around 100 units/mg.
The activity of all compounds of the examples described above was studied in animals according to the following experimental model:
Evaluate the absorption of the test product when administered by intracolonic route to rats, whether or not in the presence of adjuvants. The plasma concentration is measured by assaying the Factor Xa-inhibition capacity. The rat is used because it is one of the species commonly used in this type of test.
One intracolonic administration.
25% (v/v) propylene glycol in bidistilled water. After dissolving the test product along with the adjuvant if applicable, adjust the pH to approximately 7.4 with NaOH.
The animals will be in fasted state for approximately 18 h with free access to water
The animals will be randomized to the various experimental groups, with one remaining animal as a reserve per group:
On the day of the test, the treatments will be administered by intracolonic route, following anaesthesia with ketamine. Administration will be done using a catheter of approximately 8 cm, connected to a 1-ml syringe. The catheter will be introduced in its entirety into the colon through the anus and the test product will be administered slowly into the colon.
Following the administration of the test product, within the times established in the table, a citrated blood sample (3.8% at a ratio of 1:9) will be drawn by intracardiac puncture under anaesthesia with ketamine.
Blood centrifugation: 3000 rpm, 10 minutes, 4° C. Plasma freezing (−20±5° C.) until determining the anti-Factor Xa activity.
A control group that will receive no treatment will be included, simply that one blood sample will be drawn per animal under the same conditions as the treatment group, with considered to be the baseline value of anti-Xa activity.
The anti-Xa activity will be assayed by the chromogenic method (anti-FXa activity assay kit).
The mean, the standard deviation […] and the standard error of the mean of each experimental group will be calculated for each parameter. If considered adequate, the values obtained in the different experimental groups will be compared by a statistical analysis.

[2] = test system: Factor Xa; assay: Anti-Xa activity of the heparin material (units/mg); type: biochemical; conditions: specific activity of the heparin material

Row | Molecule | melting point | also measured
1 | O=C(O)CCCNC(=O)c1cccc(NC(=O)c2ccccc2O)c1 [Example 3, 4-[3-(2-hydroxybenzoylamino)benzoylamino]butanoic acid] | 172 to 174 °C | effect on colonic absorption of bemiparin measured by plasma anti-Xa activity [1]: no effect
2 | O=C(O)CCCNC(=O)c1ccccc1NC(=O)c1cc([N+](=O)[O-])ccc1O [Example 12, 4-[2-(2-hydroxy-5-nitrobenzoylamino)benzoylamino]butanoic acid] | 239 to 241 °C | –
3 | O=C(O)CCCNC(=O)c1ccccc1NC(=O)c1ccc([N+](=O)[O-])cc1O [Example 11, 4-[2-(2-hydroxy-4-nitrobenzoylamino)benzoylamino]butanoic acid] | 209 to 211 °C | effect on colonic absorption of bemiparin measured by plasma anti-Xa activity [1]: strong increase
4 | O=C(O)CCNC(=O)c1ccccc1NC(=O)c1ccccc1O [Example 9, 3-[2-(2-hydroxybenzoylamino)benzoylamino]propanoic acid] | 200 to 202 °C | –
5 | O=C(O)CCCCCCCNC(=O)c1ccccc1NC(=O)c1ccccc1O [Example 6, 8-[2-(2-hydroxybenzoylamino)benzoylamino]octanoic acid] | 124 to 125 °C | –
6 | O=C(O)CCCCNC(=O)c1ccccc1NC(=O)c1ccccc1O [Example 5, 5-[2-(2-hydroxybenzoylamino)benzoylamino]pentanoic acid] | 168 to 170 °C | –
7 | O=C(O)CCCCCNC(=O)c1ccc(NC(=O)c2ccccc2O)cc1 [Example 2, 6-[4-(2-hydroxybenzoylamino)benzoylamino]hexanoic acid] | 201 to 203 °C | effect on colonic absorption of bemiparin measured by plasma anti-Xa activity [1]: no effect
8 | COc1ccc(C(=O)Nc2ccccc2C(=O)NCCCC(=O)O)c(O)c1 [Example 13, 4-[2-(2-hydroxy-4-methoxybenzoylamino)benzoylamino]butanoic acid] | 201 to 203 °C | –
9 | Bemiparin | – | anti-Xa activity/ml in plasma ([1]; 0.5 h post-administration): 0.103; anti-Xa activity/ml in plasma ([1]; 2 h post-administration): 0.222; anti-Xa activity/ml in plasma ([1]; 4 h post-administration): 0.345; anti-Xa activity [2]: around 100 units/mg
10 | COc1ccc(O)c(C(=O)Nc2ccccc2C(=O)NCCCC(=O)O)c1 [Example 14, 4-[2-(2-hydroxy-5-methoxybenzoylamino)benzoylamino]butanoic acid] | 191 to 193 °C | –
11 | O=C(O)CCCNC(=O)c1ccccc1NC(=O)c1ccccc1O [Example 4, 4-[2-(2-hydroxybenzoylamino)benzoylamino]butanoic acid] | 173 to 174 °C | effect on colonic absorption of bemiparin measured by plasma anti-Xa activity [1]: strong increase
12 | O=C(O)CCCNC(=O)c1ccc(NC(=O)c2ccccc2O)cc1 [Example 1, 4-[4-(hydroxybenzoylamino)benzoylamino]butanoic acid] | 211 to 213 °C | effect on colonic absorption of bemiparin measured by plasma anti-Xa activity [1]: no effect
13 | O=C(O)CCCCCNC(=O)c1ccccc1NC(=O)c1ccccc1O [Example 7, 6-[2-(2-hydroxybenzoylamino)benzoylamino]hexanoic acid] | 165 to 167 °C | –
14 | O=C(O)CCCNC(=O)c1ccccc1NC(=O)c1ccccc1[N+](=O)[O-] [Example 8, 4-[2-(2-nitrobenzoylamino)benzoylamino]butanoic acid] | 142 to 144 °C | –

The next lines start with results.

Row | melting point | Molecule | also measured
15 | 205 to 206 °C | O=C(O)CCCNC(=O)c1ccccc1NC(=O)c1ccc(Cl)cc1O [Example 18, 4-[2-(4-chloro-2-hydroxybenzoylamino)benzoylamino]butanoic acid] | –
16 | 110 to 112 °C | O=C(O)CCCNC(=O)c1ccccc1NC(=O)c1ccccc1Cl [Example 20, 4-[2-(2-chlorobenzoylamino)benzoylamino]butanoic acid] | –
17 | 165 to 166 °C | O=C(O)CCCNC(=O)c1ccccc1NC(=O)c1cccc(Cl)c1 [Example 22, 4-[2-(3-chlorobenzoylamino)benzoylamino]butanoic acid] | –
18 | 222 to 223 °C | O=C(O)CCCNC(=O)c1ccccc1NC(=O)c1cc(Cl)ccc1O [Example 19, 4-[2-(5-chloro-2-hydroxybenzoylamino)benzoylamino]butanoic acid] | –
19 | 182 to 184 °C | O=C(O)CCCNC(=O)c1ccccc1NC(=O)c1ccc(Cl)cc1 [Example 17, 4-[2-(4-chlorobenzoylamino)benzoylamino]butanoic acid] | effect on colonic absorption of bemiparin measured by plasma anti-Xa activity [1]: strong increase
20 | 206 to 208 °C | O=C(O)CCCNC(=O)c1ccccc1NC(=O)c1ccc([N+](=O)[O-])cc1 [Example 15, 4-[2-(4-nitrobenzoylamino)benzoylamino]butanoic acid] | –
21 | 117 to 118 °C | O=C(O)CCCNC(=O)c1ccccc1NC(=O)c1ccccc1Br [Example 21, 4-[2-(2-bromobenzoylamino)benzoylamino]butanoic acid] | –
22 | 172 to 174 °C | COc1ccc(C(=O)Nc2ccccc2C(=O)NCCCC(=O)O)cc1 [Example 16, 4-[2-(4-methoxybenzoilamino)benzoilamino]butanoic acid] | –
